Test: Absorption after 8 hours of topical antiinflammatory formulations with or without 3% PFPE through pig skin, Franz cells (Example C)
Assay type: in vitro ADME
Conditions: topical formulation; for mcg of permeated active ingredient after 8 hours, Base formula: base formula without PFPE
Procedure: Apparatus: Franz Cells (manufacturer: Crown Glass Company Inc., New Jersey) Franz diffusion cells are one of the main systems used for the investigation of ex-vivo permeation. This study involved the use of three cells each with a 9 mm diameter donor compartment corresponding with a diffusion area of 64 mm^2. The receptor compartment has a capacity of 4.8 ml. The receptor chamber is heated to 37° C.± 1. The pig skin is placed between the donor compartment and the receptor chamber with the external skin surface facing the upper compartment. The test formulation is placed inside the donor compartment. The receptor chamber is filled with a phosphate buffer solution at pH 7.4 and at intervals between 0.5 and 8 hours, 2 ml of solution are drawn from this chamber. When each sample is taken fresh buffer solution heated to 37° C. is added in order to replenish the initial volume. The samples are then tested using a HPLC method. Each test is repeated three times. Verification of absorption after 8 hours, of topical formulations containing antiinflammatory drugs versus formulations which also contain 3% PFPE, through pig skin, using Franz cells, as described in Example A.

mcg of permeated active ingredient after 8 hours, Base formula + 3% PFPE [µg]	mcg of permeated active ingredient after 8 hours, Base formula [µg]	SMILES
8.66	1.82	O=C(O)Cc1ccccc1Nc1c(Cl)cccc1Cl [Diclofenac Sodium]
9.93	0.53	CCc1cccc2c3c([nH]c12)C(CC)(CC(=O)O)OCC3 (centres unmarked) [Etodolic Acid]
6.84	0.21	CC(C)Cc1ccc(C(C)C(=O)O)cc1 (centres unmarked) [Ibuprofen]
7.94	1.19	CN1C(C(=O)Nc2ccccn2)=C(O)c2ccccc2S1(=O)=O [Piroxicam]

From patent US7026360B1, “Pharmaceutical compositions containing compounds with activity for the enhancement of absorption of active ingredients” (Inpharma S.A., priority 1999, dated 2006)
